pIC50, pKi: −log10 of the molar value.
Columns and labels:
[1] = biological target: T1, Neuropeptide Y receptor type 1 (Homo sapiens, UniProt P25929); test: Displacement of [125I]PYY from human recombinant NPY1 receptor expressed in CHO cells; type: cell-based
T1 sequence (P25929 whole entry): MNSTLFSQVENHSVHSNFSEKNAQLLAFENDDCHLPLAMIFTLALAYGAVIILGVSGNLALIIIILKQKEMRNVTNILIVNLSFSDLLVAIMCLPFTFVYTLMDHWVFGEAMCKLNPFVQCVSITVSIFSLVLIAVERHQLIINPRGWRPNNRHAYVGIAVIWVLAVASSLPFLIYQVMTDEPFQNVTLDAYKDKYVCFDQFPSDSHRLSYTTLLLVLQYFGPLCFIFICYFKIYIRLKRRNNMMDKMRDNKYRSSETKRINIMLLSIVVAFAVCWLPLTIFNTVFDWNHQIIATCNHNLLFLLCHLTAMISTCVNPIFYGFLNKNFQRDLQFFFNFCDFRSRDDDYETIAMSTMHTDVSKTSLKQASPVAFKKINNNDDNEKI

[2] = Oral bioavailability in CD rat at 5 mg/kg, po; type: ADME, organism-based; details: in vivo
[3] = Ratio of drug level in brain against plasma in CD rat at 1 mg/kg, iv; type: ADME, organism-based; parameters: dose 1 mg/kg, route intravenous; details: brain and plasma
[4] = Plasma clearance in CD rat at 1 mg/kg, iv; type: ADME, organism-based; parameters: dose 1 mg/kg, route intravenous

| Compound | pIC50 [1] | further results |
| --- | --- | --- |
| CN1CCN(C2C[C@@H](Oc3ccc(Cl)cc3)c3c(c4ccccc4n3CC3CCNCC3)C2=O)CC1=O (stereo partly specified) | 5.41 | – |
| CN1CCN(C2C[C@@H](Oc3ccc(Cl)cc3)c3c(c4ccccc4n3CCCN3CCCCC3)C2=O)CC1 (stereo partly specified) | 5.88 | – |
| CC1CCN([C@@H]2C[C@@H](Oc3ccc(Cl)cc3)c3c(c4ccccc4n3CC3CCNCC3)C2=O)CC1 | 7.01 | – |
| O=C1c2c(n(CCCN3CCCCC3)c3ccccc23)[C@H](Oc2ccc(Cl)cc2)CC1N1CCCCC1 (stereo partly specified) | 5.47 | – |
| CNC1CCC(Cn2c3c(c4ccccc42)C(=O)C(N2CCN(C)CC2)C[C@H]3Oc2ccc(Cl)cc2)CC1 (stereo partly specified) | 7.03 | – |
| O=C1CC[C@@H](Oc2ccc(Cl)cc2)c2c1c1ccccc1n2CCCN1CCCCC1 | 5.14 | – |
| CC1CCN(C2C[C@@H](Oc3ccc(Cl)cc3)c3c(c4ccccc4n3CCCN3CCCCC3)C2=O)CC1 (stereo partly specified) | 6.19 | – |
| CN1CCN([C@@H]2C[C@@H](Oc3ccc(Cl)cc3)c3c(c4ccccc4n3CC3CCNCC3)C2=O)CC1 | 6.11 | – |
| O=C1c2c(n(CCCN3CCCCC3)c3ccccc23)[C@H](Oc2ccc(Cl)cc2)CC1N1CCNCC1 (stereo partly specified) | 6.48 | – |
| O=C1c2c(n(CCCN3CCCCC3)c3ccccc23)[C@H](Oc2ccc(Cl)cc2)CC1N1CCOCC1 (stereo partly specified) | 4.80 | – |
| CN1CCN(C2C[C@@H](Oc3ccc(Cl)cc3)c3c(c4ccccc4n3C[C@H]3CCNC[C@@H]3F)C2=O)CC1 (stereo partly specified) | 6.62 | – |
| O=C1c2c(n(CC3CCNCC3)c3ccccc23)[C@H](Oc2ccc(Cl)cc2)CC1N1CCN(CCO)CC1 (stereo partly specified) | 7.43 | – |
| CC1(F)CCN(C2C[C@@H](Oc3ccc(Cl)cc3)c3c(c4ccccc4n3CC3CCNCC3)C2=O)CC1 (stereo partly specified) | 7.00 | – |
| CN1CCN(C2C[C@@H](Oc3ccc(Cl)cc3)c3c(c4ccccc4n3C[C@H]3CCN(C)C[C@@H]3F)C2=O)CC1 (stereo partly specified) | 6.36 | – |
| CN1CCN(C2C[C@@H](Oc3ccc(Cl)cc3)c3c(c4ccccc4n3C[C@@H]3CCNC[C@@H]3F)C2=O)CC1 (stereo partly specified) | 6.73 | – |
| CC1CCN([C@H]2C[C@@H](Oc3ccc(Cl)cc3)c3c(c4ccccc4n3CC3CCNCC3)C2=O)CC1 | 7.65 | – |
| CN1CCN(C2C[C@@H](Oc3ccc(Cl)cc3)c3c(c4ccccc4n3C[C@@H]3CCN(C)C[C@@H]3F)C2=O)CC1 (stereo partly specified) | 6.77 | pKi [1]: 7.00 |
| CN1CCC(Cn2c3c(c4ccccc42)C(=O)C(N2CCN(C)CC2)C[C@H]3Oc2ccc(Cl)cc2)CC1 (stereo partly specified) | 7.47 | bioavailability [2]: 27%; Kp [3]: 0.8; clearance [4]: 59 mL/min/kg |
| O=C1c2c(n(CC3CCNCC3)c3ccccc23)[C@H](Oc2ccc(Cl)cc2)CC1N1CCC(F)(F)CC1 (stereo partly specified) | 5.73 | – |
| CN1CCN([C@H]2C[C@@H](Oc3ccc(Cl)cc3)c3c(c4ccccc4n3CC3CCNCC3)C2=O)CC1 | 7.31 | bioavailability [2]: 0% |
| CN1CCN(C2C[C@@H](Oc3ccc(Cl)cc3)c3c(c4ccccc4n3C)C2=O)CC1 (stereo partly specified) | 4.60 | – |

Source: ChEMBL document CHEMBL1139029, “Synthesis and SAR of substituted tetrahydrocarbazole derivatives as new NPY-1 antagonists” (Bioorg Med Chem Lett, 2006)
